Reference: US12018024B2, “Compounds and compositions for the treatment of cryptosporidiosis” (Novartis AG, priority 2020, dated 2024)

Key:
[1] = target: C. parvum PI(4)K (Cryptosporidium parvum, UniProt Q5CVD3); experiment: CpPI(4)K enzymatic assay (Transcreener ADP2 FP); assay type: biochemical
Text: Baculovirus expression and purification of C. parvum phosphatidylinositol 4-kinase: The full-length coding sequence of C. parvum PI(4)K (cgd8_4500, 1114 amino acids) was codon-optimized for baculovirus expression, synthesized and cloned into pFastBac-HTb (Invitrogen 10584-027) in frame with the amino-terminal polyhistidine tag using the BamHI and HindIII restriction sites. Recombinant pFastBacHTb-CpPI(4)K bacmid clones were generated by site-specific transposition in E. coli DH10Bac (Invitrogen 10361-012). The bacmid sequence was confirmed by direct DNA sequencing to confirm a lack of mutations across the whole gene. The subsequent steps for bacmid isolation, transfection and selection of the recombinant viruses were performed according to the manufacturer's protocol (Bac-to-Bac system #10359, Invitrogen).
SF9 cells, cultured in […] serum-free medium, were transfected with recombinant baculovirus at 1/200 (v/v) and incubated at 27° C. for 72 h. The pellets were collected after centrifugation and re-suspended in cell lysis buffer (20 mM Tris-HCl, pH 7.5, 300 mM NaCl, 1 mM DTT, 20 mM imidazole, 0.01% Triton X-100 and 1× complete protease inhibitor cocktail without EDTA (Roche Diagnostics 04693116001)). The cell suspension was lysed by sonication and the clarified supernatant was loaded onto a 1 ml HisTrap affinity column (GE Healthcare) pre-equilibrated with buffer A (20 mM Tris-HCl, pH 7.5, 300 mM NaCl, 1 mM DTT, 20 mM Imidazole, and 1× complete protease inhibitor cocktail without EDTA). The column was washed with buffer B (buffer A containing 45 mM imidazole) and the bound protein of interest was eluted with buffer C (buffer A with 90 mM imidazole). The fractions containing CpPI(4)K were pooled, concentrated using Amicon Ultra-15 and purified by a gel-filtration column (Hi-Load 26/60 Superdex 200, GE Healthcare) equilibrated with 20 mM Tris, pH 7.5, 300 mM NaCl, 1 mM DTT and 1× protease inhibitor cocktail without EDTA. The concentrations of the purified protein (Mw 132.39 kda) was determined by using the protein molar extinction coefficient (ε280 nm=133,810 M^−1 cm^−1). Aliquots were flash frozen in liquid nitrogen and immediately stored at −80° C.
PI(4)K enzymatic Assay The CpPI(4)K enzymatic assay was performed as described earlier with a some modifications (McNamara et al., 2013). Briefly, L-α-phosphatidylinositol (Avanti Polar Lipid 840046), dissolved in 3% n-octylglucoside (Roche Diagnostics 10634425001), was used as the lipid substrate for the PI(4)K activity assay. CpPI(4)K was assayed using Transcreener ADP2 FP detection kit (BellBrook 3010) in a black, solid 384-well plate (Corning 3575). The final assay volume was 10 μl and contained 3 nM of the respective CpPI(4)K construct in 10 mM Tris, pH 7.5, 1 mM DTT, 3 μM ATP, 5 mM Mn2+, 0.05% Triton X-100 and 10 μM phosphatidylinositol/octylglucoside. The enzyme reaction was performed for 50 minutes at room temperature and was stopped by adding 10 μl of detection mix containing 1× stop buffer (50 mM HEPES, pH7.5, 400 mM NaCl, 20 mM EDTA, and 0.02% Brij-35), 2 nM AMP Alexa Fluor 633 tracer, and 20 μg ml^−1 ADP antibody. Fluorescence polarization measurements were performed on the Infinite M1000 plate reader (Tecan) with λex=635 nm and λem=680 nm (20-nm bandwidth). IC50 values were calculated using Graphpad Prism software.

[2] = tested on: Cryptosporidium parvum; experiment: Cytopathic effect (CPE) based assay, C. parvum-infected HCT-8 cells; assay type: cell-based; settings: HCT-8, 48 h, read-out: (b) C.p.* CPE EC50 (μM)
Description: Human ileocecal colorectal adenocarcinoma cells (HCT-8 [HRT-18] ATCC, CCL-34) were maintained in T-175 flasks (Corning, 431080) in complete growth medium (RPMI-1640 medium (Gibco, 11875) supplemented with 10% heat-inactivated horse serum (Gibco, 26050), 1× MEM non-essential amino acids (Gibco, 11140), 10 mM HEPES (Gibco, 15630), 100 units/mL penicillin, and 100 units/mL streptomycin) at 37° C. and 5% CO2 in a humidified incubator. Cultures were passaged twice weekly using 10 mL of 1× Phosphate-Buffered Saline (PBS) without Ca^2+ and Mg^2+ (Gibco, 20012) for washing and 3-5 mL per T-175 flask of TrypLE Express Enzyme (Gibco, 12604) for dissociation of adherent cells.
Cryptosporidium parvum oocysts purchased from the Sterling Laboratory, University of Arizona (Iowa isolate) were purified from infected calf feces using discontinuous sucrose and cesium chloride centrifugation gradients and stored in PBS solution containing 0.01% Tween 20, 100 units/mL penicillin and 100 units/mL gentamicin.
Excystaion and infection: Excystation and infection protocols were developed following established methods with some modifications (Gut & Nelson, 1999, Upton et al., 1995, Bessoff et al., 2013). Briefly, oocysts were primed in 1 mL of 10 mM hydrochloric acid in 1× Hank's Balanced Salt Solution (HBSS) (Gibco, 14025) for 10 minutes with agitation at 1000 rpm, 37° C. on an Eppendorf thermomixer, then washed twice with 1 mL of room temperature non-acidic 1× HBSS by centrifugation at 13,000 rpm for 3 minutes at 25° C. Primed oocysts were further excysted at a concentration of 1×10^6 oocysts/μL in parasite infection medium consisting of a pre-warmed and pre-gassed 1:1 formulation of Leibovitz's L-15 medium (Gibco, 11415) and UltraCULTURE medium (Lonza, 12-725F) supplemented with 2 mM sodium taurocholate (Sigma, 86339-1), 10% heat-inactivated horse serum, and 200 μM L-ascorbic acid (Sigma, 95210) at 25° C. for 10 minutes. HCT-8 monolayer cells were infected with excysted cryptosporidium at a specified multiplicity of infection (MOI). All dilutions for subsequent assays were performed in parasite infection medium without sodium taurocholate. Pre-excysted oocysts were enumerated microscopically using a C-Chip disposable hemocytometer (NanoEnTek, DHC-N01).
Compound and assay plate preparation: Compound powders were dissolved in neat DMSO (Fisher, D4121) to 10 mM and stored at 4° C. prior to dilution into source plates. Dilutions were carried out using a Microlab STAR liquid handler (Hamilton) to obtain compound source plates containing the ten-point or eight-point three fold dilutions starting from 10 mM in duplicates. Source plates were stored at 4° C. prior to spotting into assay plates. Before administration, all compound source plates were equilibrated to room temperature. A specified volume of compounds from source plate were spotted to assay plate using an Echo Acoustic liquid handler (LABCYTE, 550) so that the final DMSO concentration was less than 0.5%. Each assay plate a specified number of DMSO-treated negative control wells and a well-studied potent active compound at 100 nM as positive control. As a quality control, all positive and negative-control wells were used to calculate a Z′-value and signal to noise ratio (S:N) for each plate.
Cryptosporidium spp are obligate-intracellular parasites that infect intestinal epithelial cells and the host cell is killed upon parasite egress. […] The loss of epithelial cells is due to both rapid parasite invasion/multiplication/egress and also pro-inflammatory immune response (Adams et al., 1994, Griffiths et al., 1994). We have observed a consistent cytopathic effect (CPE) in HCT-8 cells with C. spp infection the loss of viability of the host cells using CellTiter-Glo reagent.
Confluent HCT-8 cells in T-175 flasks were directly infected with excysted oocysts at an MOI (host to parasite) of 1:2 for C. parvum and 1:4 for C. hominis. […]

Sequence of C. parvum PI(4)K (Q5CVD3 entry or part of it): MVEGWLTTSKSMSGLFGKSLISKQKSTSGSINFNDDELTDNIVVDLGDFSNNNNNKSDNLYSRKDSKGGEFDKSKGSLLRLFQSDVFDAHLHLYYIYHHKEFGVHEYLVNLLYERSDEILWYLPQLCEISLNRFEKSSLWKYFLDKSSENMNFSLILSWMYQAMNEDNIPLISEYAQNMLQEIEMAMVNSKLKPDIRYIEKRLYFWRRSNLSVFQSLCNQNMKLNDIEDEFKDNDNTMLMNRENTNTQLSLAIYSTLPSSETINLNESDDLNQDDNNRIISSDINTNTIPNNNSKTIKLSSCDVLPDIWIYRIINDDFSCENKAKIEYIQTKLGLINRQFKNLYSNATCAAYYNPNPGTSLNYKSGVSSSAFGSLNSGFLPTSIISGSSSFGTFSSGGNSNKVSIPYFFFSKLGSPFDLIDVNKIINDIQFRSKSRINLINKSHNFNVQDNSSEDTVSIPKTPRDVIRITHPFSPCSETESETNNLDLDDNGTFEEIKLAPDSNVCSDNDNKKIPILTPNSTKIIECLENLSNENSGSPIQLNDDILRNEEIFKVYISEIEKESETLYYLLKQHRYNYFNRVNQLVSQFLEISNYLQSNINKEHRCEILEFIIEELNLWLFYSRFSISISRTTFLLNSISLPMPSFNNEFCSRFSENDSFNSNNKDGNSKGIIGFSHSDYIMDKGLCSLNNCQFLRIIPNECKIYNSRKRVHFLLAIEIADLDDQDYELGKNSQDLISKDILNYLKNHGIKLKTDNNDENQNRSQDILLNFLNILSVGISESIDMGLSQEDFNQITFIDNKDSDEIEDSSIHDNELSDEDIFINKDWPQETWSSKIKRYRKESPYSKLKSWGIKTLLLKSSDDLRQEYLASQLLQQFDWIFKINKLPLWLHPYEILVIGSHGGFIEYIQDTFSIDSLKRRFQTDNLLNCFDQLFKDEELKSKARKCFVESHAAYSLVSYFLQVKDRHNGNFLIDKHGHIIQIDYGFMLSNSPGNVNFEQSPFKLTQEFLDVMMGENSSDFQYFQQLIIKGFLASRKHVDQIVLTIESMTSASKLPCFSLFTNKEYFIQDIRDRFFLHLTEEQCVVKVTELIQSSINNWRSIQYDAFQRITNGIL

Compound | IC50 [1] [nM] | EC50 [2] [µM]
CSCCOC(=O)c1cc(N(C)C(=O)c2ccn3ncc(-c4ccc(C(N)=O)cc4)c3c2)ccc1Cl [Example 1.04, 2-(Methylthio)ethyl 5-(3-(4-carbamoylphenyl)-N-methylpyrazolo[1,5-a]pyridine-5-carboxamido)-2-chlorobenzoate] | < 100 | > 1
CN(C)C(=O)COC(=O)c1cc(N(C)C(=O)c2ccn3ncc(-c4ccc(C(N)=O)cc4)c3c2)ccc1Cl [Example 1.12, 2-(Dimethylamino)-2-oxoethyl 5-(3-(4-carbamoylphenyl)-N-methylpyrazolo[1,5-a]pyridine-5-carboxamido)-2-chlorobenzoate] | < 100 | 0.1 to 1
CN(C(=O)c1ccn2ncc(-c3ccc(C(N)=O)cc3)c2c1)c1ccc(Cl)c(C(=O)OCC2CCCO2)c1 (racemic) [Example 1.15, rac-(Tetrahydrofuran-2-yl)methyl 5-(3-(4-carbamoylphenyl)-N-methylpyrazolo[1,5-a]pyridine-5-carboxamido)-2-chlorobenzoate] | < 100 | 0.1 to 1
CN(C(=O)c1ccn2ncc(-c3ccc(C(N)=O)cc3)c2c1)c1ccc(Cl)c(C(=O)OCc2cncs2)c1 [Example 1.07, Thiazol-5-ylmethyl 5-(3-(4-carbamoylphenyl)-N-methylpyrazolo[1,5-a]pyridine-5-carboxamido)-2-chlorobenzoate] | < 100 | 0.1 to 1
CN(C(=O)c1ccn2ncc(-c3ccc(C(N)=O)cc3)c2c1)c1ccc(Cl)c(C(=O)OC(C)(C)C)c1 [Example 1.02, tert-Butyl 5-(3-(4-carbamoylphenyl)-N-methylpyrazolo[1,5-a]pyridine-5-carboxamido)-2-chlorobenzoate] | < 100 | 0.1 to 1
CCOC(=O)c1cc(N(C)C(=O)c2ccn3ncc(-c4ccc(C(N)=O)cc4)c3c2)ccc1Cl [Example 1.09, Ethyl 5-(3-(4-carbamoylphenyl)-N-methylpyrazolo[1,5-a]pyridine-5-carboxamido)-2-chlorobenzoate] | < 100 | 0.1 to 1
COCCOC(=O)c1cc(N(C)C(=O)c2ccn3ncc(-c4ccc(C(N)=O)cc4)c3c2)ccc1Cl [Example 1.11, 2-Methoxyethyl 5-(3-(4-carbamoylphenyl)-N-methylpyrazolo[1,5-a]pyridine-5-carboxamido)-2-chlorobenzoate] | < 100 | 0.1 to 1
CN(C(=O)c1ccn2ncc(-c3ccc(C(N)=O)cc3)c2c1)c1ccc(Cl)c(C(=O)OCC(F)(F)F)c1 [Example 1.10, 2,2,2-Trifluoroethyl 5-(3-(4-carbamoylphenyl)-N-methylpyrazolo[1,5-a]pyridine-5-carboxamido)-2-chlorobenzoate] | < 100 | > 1
CNC(=O)c1ccc(-c2cnn3ccc(C(=O)N(C)c4ccc(Cl)c(C(=O)OC(C)(C)C)c4)cc23)cc1 [Example 1.17, t-Butyl 2-chloro-5-(N-methyl-3-(4-(methylcarbamoyl)phenyl)pyrazolo[1,5-a]pyrdine-5-carboxamido)benzoate] | < 100 | < 0.1
CNC(=O)c1ccc(-c2cnn3ccc(C(=O)N(C)c4ccc(OC(F)(F)F)c(C(=O)OC)c4)cc23)cc1 [Example 1.26, Methyl 5-(N-methyl-3-(4-(methylcarbamoyl)phenyl)pyrazolo[1,5-a]pyridine-5-carboxamido)-2-(trifluoromethoxy)benzoate] | < 100 | 0.1 to 1
CC(C)COC(=O)c1cc(N(C)C(=O)c2ccn3ncc(-c4ccc(C(N)=O)cc4)c3c2)ccc1Cl [Example 1.05, Isobutyl 5-(3-(4-carbamoylphenyl)-N-methylpyrazolo[1,5-a]pyridine-5-carboxamido)-2-chlorobenzoate] | < 100 | 0.1 to 1
CC(C)OC(=O)c1cc(N(C)C(=O)c2ccn3ncc(-c4ccc(C(N)=O)cc4)c3c2)ccc1Cl [Example 1.13, Isopropyl 5-(3-(4-carbamoylphenyl)-N-methylpyrazolo[1,5-a]pyridine-5-carboxamido)-2-chlorobenzoate] | < 100 | 0.1 to 1
